Experimental data published in patent US7294641B2, “Heterocyclic compound for stimulating or inducing the growth of the hair or eyelashes and/or slowing down their loss, composition comprising it and its uses” (L'Oreal, priority 2002, dated 2007).
Where a name gives a salt, the structure may show the parent alone.

Experiments:
[1] = target: T1, 15PGDH (Homo sapiens, UniProt P15428); test: Specific inhibitory effectiveness for 15PGDH on a cell model (PGF2 secreted by PMA/LPS-treated U937); type: cell-based; design: endogenous in cells; host or cells: U937 (ATCC CRL-1593), PMA-differentiated, LPS-stimulated; details: 5 μM test molecule, 10 ng LPS, 6 h at 37° C., immuno-enzymatic assay
T1 sequence (P15428 1-266): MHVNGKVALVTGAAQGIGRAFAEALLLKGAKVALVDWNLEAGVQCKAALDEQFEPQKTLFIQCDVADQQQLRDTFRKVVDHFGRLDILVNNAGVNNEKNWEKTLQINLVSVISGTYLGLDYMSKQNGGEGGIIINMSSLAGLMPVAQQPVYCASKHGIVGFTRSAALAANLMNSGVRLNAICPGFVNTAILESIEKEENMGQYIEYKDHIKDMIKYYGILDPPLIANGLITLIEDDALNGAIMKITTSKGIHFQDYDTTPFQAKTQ
Method: The present study is targeted at evaluating the compounds of formula (I) in a cell model. This study makes it possible to determine the penetration of the active principle into the cytosol and its effectiveness as specific inhibitor of 15-PGDH under more complex experimental conditions than a simple reaction medium.
D-2. Culturing of U937 (CRL-1593 American Type Cells Collection) in RPMI medium 1640+10% of foetal calf serum+2 mM of L-glutamine+antibiotics at 37° C. under 5% of CO2.
D-1. Preparation of a suspension of U937 (1×10^6 cells/ml) in RPMI medium 1640+10% of foetal calf serum+2 mM of glutamine+antibiotics+10 nM of PMA (phorbol 12-myristate 13-acetate); introduction of 200 μl per test well of this suspension into a 96-well plate (3 wells per molecule and per concentration to be tested+corresponding controls); incubation at 37° C. for 36 h 00 under 5% CO2.
D0. Removal of the supernatants (the cells have adhered to the bottom of the wells: monitoring using a microscope) and introduction into each well of 100 μl of RPMI 1640+2 mM of L-glutamine+10 ng of LipoPolySaccharide (LPS) (except absolute control)+the test molecule at the desired concentration (in this instance, 5 and 25 μM).
Incubation at 37° C. for 6 h 00 under 5% of CO2.
The mother solutions of test molecules are at 25 mM in DiMethyl SulfOxide.
All the wells comprise the same final amount of DMSO. […]

[2] = target: T2, PGF synthase (Homo sapiens, UniProt P42330); test: Test on PGFS (spectrophotometric, 340 nm, 9,10-phenanthrenequinone/β-NADPH); type: biochemical; details: Tris 100 mM pH 6.5, 37° C., 20 μM 9,10-phenanthrenequinone, 100 μM β-NADPH; read-out: Inhibition of PGFS IC50fs
T2 construct: made in house
T2 sequence (P42330 1-323): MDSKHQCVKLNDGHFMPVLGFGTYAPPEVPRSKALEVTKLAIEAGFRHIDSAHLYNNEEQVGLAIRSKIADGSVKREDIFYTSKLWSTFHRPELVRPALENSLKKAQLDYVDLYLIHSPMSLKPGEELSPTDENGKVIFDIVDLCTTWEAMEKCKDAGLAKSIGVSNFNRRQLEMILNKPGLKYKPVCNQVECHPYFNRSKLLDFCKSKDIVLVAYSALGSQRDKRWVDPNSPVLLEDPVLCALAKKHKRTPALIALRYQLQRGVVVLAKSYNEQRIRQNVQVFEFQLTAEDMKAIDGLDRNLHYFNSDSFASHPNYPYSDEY
Method: The enzyme PGF synthase is obtained as disclosed in the document FR-A-02/05067, at a concentration of 0.5 mg/ml, in suspension in an appropriate medium, and is blocked at −80° C. For the requirements of the test, this suspension is defrosted and stored in ice.
Furthermore, a Tris 100 mM, pH=6.5, buffer comprising 20 μM of 9,10-phenanthrenequinone* (P2896, Sigma-Aldrich, L'isle D'Abeau Chesne, BP 701, 38297, Saint Quentin Fallavier) and 100 μM of β-NADPH(N1630, Sigma-Aldrich, L'isle D'Abeau Chesne, BP 701, 38297, Saint Quentin Fallavier) is prepared in a brown bottle (exclusion of light).
* A mother solution assaying 1 mM is prepared in absolute ethanol and is brought to 40° C.; the bottle is placed in an ultrasonic bath to facilitate the dissolution of the product.
0.950 ml of this buffer (brought beforehand to 37° C.) is introduced into the cell of a spectrophotometer (Perkin-Elmer, Lambda 2) thermostatically controlled at 37° C., the wavelength of which for the measurement is adjusted to 340 nm. 0.05 ml of enzymatic suspension at 37° C. is introduced into the cell concomitantly with the recording (corresponding to a fall in optical density at 340 nm). The maximum rate of reaction is noted. […]

[3] = target: T1, 15PGDH; test: Test on 15-PGDH (spectrophotometric, 340 nm, PGE2/β-NAD); type: biochemical; design: made in house
Method: The enzyme 15-PGDH is obtained as disclosed in Application FR-A-02/05067, filed on behalf of L'Oréal, in suspension in a suitable medium at a concentration of 0.3 mg/ml, then blocked at −80° C. For the requirements of the test, this suspension is defrosted and stored in ice.
Furthermore, a Tris 100 mM, pH=7.4, buffer comprising 0.1 mM of dithiothreitol (D5545, Sigma-Aldrich, L'isle D'Abeau Chesne, BP 701, 38297, Saint Quentin Fallavier), 1.5 mM of β-NAD (N6522, Sigma-Aldrich, L'isle D'Abeau Chesne, BP 701, 38297, Saint Quentin Fallavier) and 50 μM of prostaglandin E2 (P4172, Sigma-Aldrich, L'isle D'Abeau Chesne, BP 701, 38297, Saint Quentin Fallavier) is prepared.
0.965 ml of this buffer (brought beforehand to 37° C.) is introduced into the cell of a spectrophotometer (Perkin-Elmer, Lambda 2) thermostatically controlled at 37° C., the wavelength of which for the measurement is adjusted to 340 nm. 0.035 ml of enzymatic suspension at 37° C. is introduced into the cell concomitantly with the recording (corresponding to an increase in optical density at 340 nm). The maximum rate of reaction is noted.
The test values (comprising the compounds (I)) are compared with the control value (without compound (I)); the results indicated represent the concentration at which the compound (I) inhibits 50% of the enzymatic activity of 15-PGDH, referred to as IC50dh.

O=C1N=C(O)/C(=C/c2ccc(-c3ccc(C(=O)O)cc3)o2)S1 [Compound 8, Disodium salt of 4-{5-[(2,4-disulpho-1,3-thiazolidin-5-ylidene)methyl]-2-furyl}benzoic acid (isomer Z)]
amount of PGF2 secreted by the cells, % of the LPS control [1]: +44 ± 16%

O=C1NC(=O)C(=Cc2ccc(-c3ccc(C(=O)O)cc3)o2)S1 [Compound 1, 4-{5-[(2,4-Dioxo-1,3-thiazolidin-5-ylidene)methyl]-2-furyl}benzoic acid]
IC50 [2]: 4000 nM
amount of PGF2 secreted by the cells, % of the LPS control [1]: +76 ± 20%
IC50 ([3]; Tris 100 mM pH 7.4, 37° C., 50 μM prostaglandin E2, 1.5 mM β-NAD, read-out: Inhibition of 15-PGDH IC50dh): 300 nM
ratio IC50fs/IC50dh ([3]; selectivity for 15-PGDH with respect to PGFS): greater than 13
